Assay results taken from ChEMBL document CHEMBL4152367, “Discovery of a Potent Thiazolidine Free Fatty Acid Receptor 2 Agonist with Favorable Pharmacokinetic Properties” (J Med Chem, 2018).
The source made the active and inactive calls. The calls are words filed in the database; no cut-off is given here.

How the values were obtained:
[1] = biological target: T1, Free fatty acid receptor 2 (Homo sapiens) (UniProt O15552); assay: Agonist activity at human FFA2R expressed in Flp-InT-REx 293 cells assessed as reduction of forskolin-induced cAMP production up to 30 uM after 30 mins by TR-FRET assay relative to control; assay type: functional, cell-based
T1 sequence (whole entry): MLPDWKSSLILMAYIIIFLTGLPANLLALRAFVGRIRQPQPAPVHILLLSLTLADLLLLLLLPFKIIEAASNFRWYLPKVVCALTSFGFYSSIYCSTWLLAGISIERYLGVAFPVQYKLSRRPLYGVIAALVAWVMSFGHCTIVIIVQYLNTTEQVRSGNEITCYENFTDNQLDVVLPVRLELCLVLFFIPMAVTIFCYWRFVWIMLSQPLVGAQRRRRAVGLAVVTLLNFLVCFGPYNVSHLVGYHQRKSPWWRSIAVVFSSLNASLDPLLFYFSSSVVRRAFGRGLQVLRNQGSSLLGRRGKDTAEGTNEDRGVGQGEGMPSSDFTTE

[2] = biological target: T1, Free fatty acid receptor 2 (Homo sapiens); assay: Agonist activity to human FFA2R expressed in HEK293T cells assessed as induction beta-arrestin-2 recruitment at 100 uM after 10 mins by BRET assay relative to control; assay type: functional, cell-based
[3] = biological target: T1, Free fatty acid receptor 2 (Homo sapiens); assay: Agonist activity to human FFA2R expressed in HEK293T cells assessed as induction beta-arrestin-2 recruitment up to 30 uM after 10 mins by BRET assay relative control; assay type: functional, cell-based
[4] = biological target: T2, Free fatty acid receptor 2 (Mus musculus, UniProt Q8VCK6); assay: Agonist activity at FFA2R in mouse mature adipocytes assessed as inhibition of isoproterenol-induced glycerol production
T2 sequence (Q8VCK6 whole entry): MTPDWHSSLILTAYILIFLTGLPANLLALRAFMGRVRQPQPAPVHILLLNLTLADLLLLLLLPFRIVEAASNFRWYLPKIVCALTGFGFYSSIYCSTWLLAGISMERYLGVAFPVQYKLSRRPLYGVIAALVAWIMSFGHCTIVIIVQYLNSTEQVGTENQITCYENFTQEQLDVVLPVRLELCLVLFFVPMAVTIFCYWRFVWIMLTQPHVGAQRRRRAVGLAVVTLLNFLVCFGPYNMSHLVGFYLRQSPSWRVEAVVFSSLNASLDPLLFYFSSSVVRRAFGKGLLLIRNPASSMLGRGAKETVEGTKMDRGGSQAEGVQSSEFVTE

[5] = Half life in Balb/c mouse at 5 mg/kg, ip by HPLC-MS/MS analysis; assay type: ADME, organism-based; details: in vivo
[6] = AUC (0 to infinity) in Balb/c mouse at 5 mg/kg, ip by HPLC-MS/MS analysis; assay type: ADME, organism-based; design: dose 5 mg/kg, time infinity, route intraperitoneal; details: in vivo

Row | Structure (SMILES) | Activity [1] | Activity [3] | other results
1 | Cc1noc(C)c1-c1ccc(C(=O)N2[C@@H](c3ccccn3)SC[C@H]2C(=O)O)cc1 | inactive |  | 
2 | COc1ccccc1-c1ccc(C(=O)N2[C@H](C(=O)O)CS[C@@H]2C(C)(C)C)cc1 | inactive |  | Activity [2]: 50%
3 | O=C(O)[C@@H]1CS[C@H](c2ccccc2Cl)N1C(=O)c1ccccc1 | inactive | inactive | 
4 | CCC(=O)O [PROPIONIC ACID] |  |  | EC50 [4]: 251 µM
5 | COc1ccccc1-c1ccc(C(=O)N2[C@@H](c3ccccc3Cl)CC[C@H]2C(=O)O)cc1 |  |  | half-life [5]: 50 min; AUC(0-inf) [6]: 417 ng·h/mL
6 | COc1ccccc1-c1ccc(C(=O)N2[C@H](C(=O)O)CO[C@@H]2C(C)(C)C)cc1 | inactive | inactive | 
